Values of other authors, collected in patent US6472370B1, “Anticonvulsant derivatives useful in treating post traumatic stress disorder” (Ortho-McNeil Pharmaceutical, Inc., priority 1998, dated 2002).
Like-named read-outs stand apart in the source and are kept apart here.

Tests used:
[1] = system: kindling seizures; details: animal (rodent) model of kindling
[2] = system: seizures in several rodent models of epilepsy
[3] = system: simple and complex partial seizures and secondarily generalized seizures; details: clinical trials of human epilepsy; adjunctive therapy or monotherapy

## CC1(C)O[C@@H]2[C@@H](CO[C@@]3(COS(N)(=O)=O)OC(C)(C)O[C@@H]23)O1 [topiramate, 2,3:4,5-bis-O-(1-methylethylidene)-β-D-fructopyranose sulfamate]
[1]
  block of seizures in kindled epilepsy / kindling seizures: effectively block seizures
[1]; listed as Topiramate
  block of seizures in kindled epilepsy / kindling seizures: effective
[2]
  block of seizures: effectively block seizures
[3]
  efficacy in treating simple and complex partial seizures and secondarily generalized seizures: effective
